{
  "source": "patent US10774049B2",
  "about": "“PU.1 inhibitors” (Albert Einstein College of Medicine, priority 2016, dated 2020)",
  "test_system": "PU.1 URE−/− AML cells",
  "experiment": "Gene expression (transcriptome) analysis of PU.1 URE−/− AML cells",
  "format": "cell-based, murine",
  "conditions": "by at least 1.2-fold",
  "protocol": "FIG. 3A-3G. Novel inhibitors show on-target PU.1 inhibitory activity. (A) Quantitative RT-PCR analysis of Csf1r, Junb, Sfpi1, E2f1 expression after 72 h (n=6) and, for Csf1r, after 1 h (n=3), 4 h (n=7), 8 h (n=3) and 24 h (n=3) of treatment with the small molecules in URE−/− cells, expression is normalized to GAPDH expression. Data represent means±SD of technical triplicate from one representative experiment; fold change compared to Vehicle is shown. (B) Chromatin immunoprecipitation assay showing PU.1 occupancy on E2f1, Junb, Csf1r promoters after treatment in Umsh cell line (n=5). 10·10^6 cells were collected for each condition after 8 h treatment with a double dose of the small molecules (50 uM for DB1976, 1.4 uM for DB2115 and 660 nM for DB2313) or Vehicle; and processed for ChIP using PU.1 monoclonal antibody. Myogenin was used as a negative control, not regulated by PU.1. Data represent means±SD of technical triplicate from one representative experiment. (C) Cell viability after PU.1 rescue in MOLM13 cells. MOLM13 were transduced with a lentiviral construct expressing either PU.1-GFP (PU.1, black bar) or GFP as a control (empty, white bar), sorted on GFP and plated with DB1976 (n=7), DB2115 (n=8), DB2313 (n=6) or Vehicle. Cell count was performed after 4 days. Data represent means±SD of technical triplicate from one representative experiment; fold change compared to Vehicle is shown. (D-G) Transcriptome analysis of URE−/− cells after 24 h of treatment with DB2313 versus vehicle (n=3). Differentially expressed genes were determined with a fold change at 1.2 and a P value <0.1. (D) Enrichment in genes directly regulated by PU.1 or in genes regulated by the other ETS transcription factors Ets1, Gabpa, Spi-B, Fli-1, using Ingenuity Knowledge Base. The red dotted line represents the significance threshold (−log (P value)>1.3). […] Deregulated gens in PUER cells were analyzed with a FC at 1.5 and P-value <0.05. […] P-value was calculated using the hypergeometric test. […]",
  "note": "Structures can show the parent of a compound that is named as a salt.",
  "data": [
    {"smiles": "CC(C)NC(=N)c1ccc2nc(-c3ccc(OCc4cccc(COc5ccc(-c6nc7ccc(C(=N)NC(C)C)cc7[nH]6)cc5)c4F)cc3)[nH]c2c1", "note": "[DB2313, 3-Bis{4[4(5)-N-isopropylamidinobenzimidazolyl]phenoxymethyl]}-2-fluorobenzene tetrahydrochloride]", "values": [
      {"measurement": "number of downregulated probe sets", "result": 781, "unit": "probe sets"},
      {"measurement": "number of upregulated probe sets", "result": 867, "unit": "probe sets"},
      {"measurement": "number of dysregulated transcripts (out of 34,472 total)", "setting": "24 h", "result": 1648, "unit": "transcripts"}
    ]}
  ]
}
